The nature of the data set: Storage stability of the gel formulation containing calcipotriol and betamethasone dipropionate. It counts as physicochemical. The settings on record: gel formulation of Example 1; for Calcipotri. Kvant.: content of calcipotriol, in µg/g; for BDP Kvant.: content of BDP. Here is the method:
To produce 1 kg of gel formulation, 30 g of hydrogenated castor oil was melted together with 749 g of heptamethylnonane at 85-90° C. and cooled with homogenisation to about 60° C. The mixture was then cooled to 25-30° C. with stirring. 643 mg of betamethasone dipropionate was suspended in 50 g of heptamethylnonane and added to the homogenised gel base. 52.2 mg of calcipotriol hydrate or 50 mg of calcipotriol was dissolved in 170 g polyoxypropylene-15-stearyl ether and added to the mixture of the other ingredients, and the formulation was homogenised to ensure a homogenous distribution of the active components. The resulting gel formulation was stable when stored at 40° C. for 3 months, indicating a shelf life of at least 2 years at room temperature.

In the case of `C=C1/C(=C\C=C2/CCC[C@]3(C)[C@@H]([C@H](C)/C=C/[C@@H](O)C4CC4)CC[C@@H]23)C[C@@H](O)C[C@@H]1O` [Calcipotri., calcipotriol], where the note is “40° C. 1 month”, the “% Epi” value is 0.66%, the “% FOS” value was found to be 1.52% and the “Calcipotri. Kvant.” value is given as 50.16. For the setting “40° C. 3 months”, the “% Epi” value is recorded as 0.8%, the “% FOS” value worked out at 1.33% and the “Calcipotri. Kvant.” value stood at 50.0. For the same molecule, under “Start 5°C./1 month”, the “% Epi” value is 0.62% and the “% FOS” value is given as 1.59%.
As to `CCC(=O)OCC(=O)[C@@]1(OC(=O)CC)[C@@H](C)C[C@H]2[C@@H]3CCC4=CC(=O)C=C[C@]4(C)[C@@]3(F)[C@@H](O)C[C@@]21C` [BDP, betamethasone dipropionate], the “% FOS” value reads like this: (40° C. 1 month) 0.91%; (40° C. 3 months) 1.02%; (Start 5°C./1 month) 0.23%. Also, the BDP Kvant. is, setting by setting: (40° C. 1 month) 0.634 mg/g; (40° C. 3 months) 0.642 mg/g.
